Experimental data published in US20040248918A1, “N-phenyl-2-pyrimidine-amine derivatives and process for the preparation thereof” (IL YANG PHARM. CO., LTD., priority 2003, published 2004).
Counter-ions that a name gives are not always drawn.

Key:
[1] = tested on: K562 cancer cell (CML cell line); assay: Growth inhibition of K562 cancer cell (MTT); assay type: cell-based; details: for IC50: Homo sapiens, K562, 48 h, K562, 2 days, MTT, read-out: IC50
Protocol: In the present experiment, the inhibitory activity of the compound of formula (1) was determined against the growth of K562 cancer cell. First, the cells were allowed to stand in RPMI (Roswell Park Memorial Institute)-1640 medium containing 10% (v/v) fetal bovine serum in an incubator of 37° C. and 5% by volume of CO2. The cancer cells (1000 cells) were transferred to a 96-well plate, and the test compound was diluted. The plate was allowed to stand under the above mentioned conditions for 2 days. […] The supernatant was removed to leave the resulting crystal.

[2] = tested on: U937 cancer cell (monocyte like leukemia cell line); assay: Growth inhibition of U937 cancer cell (MTT); assay type: cell-based; details: Homo sapiens, U-937
Protocol: (§1) In the present experiment, the inhibitory activity of the compound of formula (1) was determined against the growth of K562 cancer cell. First, the cells were allowed to stand in RPMI (Roswell Park Memorial Institute)-1640 medium containing 10% (v/v) fetal bovine serum in an incubator of 37° C. and 5% by volume of CO2. The cancer cells (1000 cells) were transferred to a 96-well plate, and the test compound was diluted. The plate was allowed to stand under the above mentioned conditions for 2 days. After this treatment, to the cells was added 0.2% MTT (3-[4,5-dimethylthiazol-2-yl]-2,5-diphenyltetrazolium bromide) solution, and the resulting mixture was allowed to stand under the constant temperature-condition for 4 hours. The supernatant was removed to leave the resulting crystal. DMSO was added to dissolve the crystal, and the absorbance of the solution was measured at 540 nm. IC50 value was calculated using a computer system according to the following formula: […]
In the present experiment, the inhibitory activity of the compound of formula (1) was determined against the growth of U937 cancer cell. The test was performed according to the same procedure as Experiment 1.

[3] = tested on: L1210 cancer cell (leukemia cell line); assay: Growth inhibition of L1210 cancer cell (MTT); assay type: cell-based; details: for IC50: Mus musculus
Protocol: as §1
In the present experiment, the inhibitory activity of the compound of formula (1) was determined against the growth of L1210 cancer cell. The test was performed according to the same procedure as Experiment 1.

[4] = Comparative pharmacokinetic test in white rats; assay type: in vivo, white rats (Sprague-Dawley); details: male, Sprague-Dawley, plasma, po, rat, 100 mg/kg, P.O.
Protocol: On the previous day to the test, white rats (Sprague-Dawley, 250˜280 g, male) were put under anesthesia by pentobarbital sodium (50 mg/kg, I.P.). Then, cannula (polyethylene tube; diameter: 0.58mm) was introduced into the rats via the carotid artery and jugular vein, and drawn out to the back. After the operation, the rats were fasted for 16 hours and used for the test. […] Blood was collected in 0, 0.5, 1, 1.5, 2, 2.5, 3, 3.5, 4, 4.5, 5, 6, 8, 10, 12, and 24 hours from the carotid artery. The samples for HPLC analysis were prepared using the collected blood according to the following procedure and were analyzed under the following conditions.
Blood was collected by an amount of 0.5 ml at each prearranged time and centrifuged at 15000 rpm for 7 minutes to separate […] of plasma. In order to remove proteins, MeOH was added in an amount of […], twice as much as the amount of plasma, and the mixture was shaken for 30 minutes. The mixture was centrifuged again at 15000 rpm for 5 minutes to give protein free supernatant, which was then analyzed by HPLC.
Flow rate: 1.0 ml/min, UV detection at 267 nm
Column: 4.6×150 mm, 5C18-AR-II, COSMOSIL
Eluent: Mixture of ion pair sample (420 ml) and MeOH (580 ml)
Ion pair sample: 7.5 g of 1-octanesulfonic acid was dissolved in 800 ml of water. The resulting mixture was adjusted to pH 2.5 using phosphoric acid and diluted with water to 1000 ml volume.
Here, the pharmacokinetic parameters are Tmax (time to reach the maximum blood concentration), Cmax (maximum blood concentration), AUC (area under the curve of time-blood concentration), and T1/2 (half time in blood), and the AUC was calculated under trapezoid rule (see Tables 6, 7 and FIGS. 1, 2).

Row | Compound | melting point [°C] | IC50 [1] [µg/mL] | IC50 [2] [µg/mL] | IC50 [3] [µg/mL] | further results
1 | CS(=O)(=O)O.Cc1cc(NC(=O)c2ccc(CNN3CCN(C)CC3)cc2)ccc1Nc1nccc(-c2cccnc2)n1 | 172 to 174 |  |  |  | 
2 | CC(=O)O.CN1CCN(NCc2ccc(C(=O)Nc3ccc(Nc4nccc(-c5cccnc5)n4)cc3)cc2)CC1 | 169 to 171 |  |  |  | 
3 | CS(=O)(=O)O.Cc1ccc(Nc2nccc(-c3cccnc3)n2)cc1NC(=O)c1ccc(CN2CCCN(C)CC2)cc1 [Example 6, 4-(4-methylhomopiperazin-1-ylmethyl)-N-[2-methyl-5-(4-(pyridin-3-yl)pyrimidin-2-yl)aminophenyl]benzamide methanesulfonate] | 168 to 170 | 20.5 | 5.14 | 3.24 | Improved activity versus Imatinib mesylate [3]: 10 times
4 | CS(=O)(=O)O.Cc1ccc(Nc2nccc(-c3cccnc3)n2)cc1NC(=O)c1ccc(CNN2CCN(C)CC2)cc1 [Example 8, 4-(4-methylpiperazin-1-ylaminomethyl)-N-[2-methyl-5-(4-(pyridin-3-yl)pyrimidin-2-yl)aminophenyl]benzamide methanesulfonate] | 150 to 152 | 27.6 | 9.44 | 7.38 | 
5 | CN1CCCN(Cc2ccc(C(=O)Nc3cccc(Nc4nccc(-c5cccnc5)n4)c3)cc2)CC1.CS(=O)(=O)O [Example 12, 4-(4-methylhomopiperazin-1-ylmethyl)-N-[3-(4-(pyridin-3-yl)pyrimidin-2-yl)aminophenyl]benzamide methanesulfonate] | 206 to 208 | 10.2 | 3.41 | 0.99 | Improved activity versus Imatinib mesylate [3]: 32 times
6 | CN1CCN(NCc2ccc(C(=O)Nc3cccc(Nc4nccc(-c5cccnc5)n4)c3)cc2)CC1.CS(=O)(=O)O [Example 14, 4-(4-methylpiperazin-1-ylaminomethyl)-N-[3-(4-(pyridin-3-yl)pyrimidin-2-yl)aminophenyl]benzamide methanesulfonate] | 148 to 150 | 8.95 |  |  | 
7 | CS(=O)(=O)O.Cc1cc(NC(=O)c2ccc(CN3CCCN(C)CC3)cc2)ccc1Nc1nccc(-c2cccnc2)n1 [Example 16, 4-(4-methylhomopiperazin-1-ylmethyl)-N-[3-methyl-4-(4-(pyridin-3-yl)pyrimidin-2-yl)aminophenyl]benzamide methanesulfonate] | 166 to 168 | > 50 |  |  | 
8 | COc1ccc(NC(=O)c2ccc(CN3CCCN(C)CC3)cc2)cc1Nc1nccc(-c2cccnc2)n1.CS(=O)(=O)O [Example 20, 4-(4-methylhomopiperazin-1-ylmethyl)-N-[4-methoxy-3-(4-(pyridin-3-yl)pyrimidin-2-yl)aminophenyl]benzamide methanesulfonate] | 140 to 142 | 34.7 | 9.51 | 4.32 | 
9 | COc1ccc(NC(=O)c2ccc(CNN3CCN(C)CC3)cc2)cc1Nc1nccc(-c2cccnc2)n1.CS(=O)(=O)O [Example 22, 4-(4-methylpiperazin-1-ylaminomethyl)-N-[4-methoxy-3-(4-(pyridin-3-yl)pyrimidin-2-yl)aminophenyl]benzamide methanesulfonate] | 142 to 144 | 10 | 8.61 | 4.46 | 
10 | CN1CCCN(Cc2ccc(C(=O)Nc3cc(Nc4nccc(-c5cccnc5)n4)ccc3F)cc2)CC1.CS(=O)(=O)O [Example 24, 4-(4-methylhomopiperazin-1-ylmethyl)-N-[2-fluoro-5-(4-(pyridin-3-yl)pyrimidin-2-yl)aminophenyl]benzamide methanesulfonate] | 125 to 127 | 19.1 |  |  | 
11 | CN1CCN(NCc2ccc(C(=O)Nc3cc(Nc4nccc(-c5cccnc5)n4)ccc3F)cc2)CC1.CS(=O)(=O)O [Example 28, 4-(4-methylpiperazin-1-ylaminomethyl)-N-[2-fluoro-5-(4-(pyridin-3-yl)pyrimidin-2-yl)aminophenyl]benzamide methanesulfonate] | 142 to 144 | 8.63 |  |  | 
12 | CN1CCN(NCc2ccc(C(=O)Nc3ccc(Nc4nccc(-c5cccnc5)n4)cc3)cc2)CC1.CS(=O)(=O)O [Example 30, 4-(4-methylpiperazin-1-ylaminomethyl)-N-[4-(4-(pyridin-3-yl)pyrimidin-2-yl)aminophenyl]benzamide methanesulfonate] | 151 to 153 | 22.8 |  |  | 
13 | CN1CCN(Cc2ccc(C(=O)Nc3ccc(F)c(Nc4nccc(-c5cccnc5)n4)c3)cc2)CC1.CS(=O)(=O)O [Example 32, 4-(4-methylpiperazin-1-ylmethyl)-N-[4-fluoro-3-(4-(pyridin-3-yl)pyrimidin-2-yl)aminophenyl]benzamide methanesulfonate] | 172 to 174 | 8.06 |  |  | 
14 | CN1CCCN(Cc2ccc(C(=O)Nc3ccc(F)c(Nc4nccc(-c5cccnc5)n4)c3)cc2)CC1.CS(=O)(=O)O [Example 34, 4-(4-methylhomopiperazin-1-ylmethyl)-N-[4-fluoro-3-(4-(pyridin-3-yl)pyrimidin-2-yl)aminophenyl]benzamide methanesulfonate] | 158 to 160 | 7.17 |  |  | 
15 | CS(=O)(=O)O.O=C(Nc1cccc(Nc2nccc(-c3cccnc3)n2)c1)c1ccc(CN2CCCCC2)cc1 [Example 36, 4-(piperidin-1-ylmethyl)-N-[3-(4-(pyridin-3-yl)pyrimidin-2-yl)aminophenyl]benzamide methanesulfonate] | 173 to 175 | 11.3 | 6.91 | 5.95 | 
16 | CN1CCCN(Cc2ccc(C(=O)Nc3ccc(Nc4nccc(-c5cccnc5)n4)cc3)cc2)CC1.Cl [Example 41, 4-(4-methylhomopiperazin-1-ylmethyl)-N-[4-(4-(pyridin-3-yl)pyrimidin-2-yl)aminophenyl]benzamide hydrochloride] |  | 5.61 |  |  | 
17 | Cc1ccc(NC(=O)c2ccc(CNN3CCN(C)CC3)cc2)cc1Nc1nccc(-c2cccnc2)n1.Cl [Example 42, 4-(4-methylpiperazin-1-ylaminomethyl)-N-[4-methyl-3-(4-(pyridin-3-yl)pyrimidin-2-yl)aminophenyl]benzamide hydrochloride] |  | 0.3 |  |  | Improved activity versus Imatinib mesylate ([1]; K562): much higher activity
18 | CN1CCN(NCc2ccc(C(=O)Nc3ccc(Nc4nccc(-c5cccnc5)n4)cc3)cc2)CC1.Cl [Example 43, 4-(4-methylpiperazin-1-ylaminomethyl)-N-[4-(4-(pyridin-3-yl)pyrimidin-2-yl)aminophenyl]benzamide hydrochloride] | 183 to 185 | > 50 |  |  | 
19 | Cc1ccc(NC(=O)c2ccc(CN3CCN(C)CC3)cc2)cc1Nc1nccc(-c2cccnc2)n1 [Imatinib mesylate, reference compound] |  |  |  |  | Cmax [4]: 2720 ng/mL; Tmax [4]: 2.3 h; AUC ([4]; trapezoid rule): 26500 ng·h/mL
